Measured values reported in patent publication US12685312B2, “Sulfonamide apyrase inhibitors” (Texas Crop Science, Inc., priority 2022, dated 2026).

The compounds below were run on apyrase (assay: Screen for apyrase inhibitors (Method 1, in vitro phosphate-release absorbance assay)). Conditions: inhibitor conc at 1 mM stock, 1 hr room temperature, absorbance 630 nm; rounded average of two assay results.
Type: biochemical
Procedure, shortened: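 Phosphate-release colorimetric assay (Windsor method) in 60 mM Hepes, 3 mM MgCl2, 3 mM CaCl2, 3 mM ATP, pH 6.5, with compound or DMSO control added. Released phosphate developed with ammonium molybdate and ascorbic acid/TCA, then stopped with citrate/acetic acid.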

Structure (SMILES) | % Inhibition of Apyrase [%]
N#Cc1cccc(NC(=O)c2cccc(S(=O)(=O)Nc3cc(C(F)(F)F)ccc3Cl)c2)c1 [I-532, 3-(N-(2-chloro-5-(trifluoromethyl)phenyl)sulfamoyl)-N-(3-cyanophenyl)benzamide] | 55
CC1Cc2ccccc2N1C(=O)c1cccc(S(=O)(=O)Nc2ccccc2F)c1 (centres unmarked) [I-533, N-(2-fluorophenyl)-3-(2-methylindoline-1-carbonyl)benzenesulfonamide] | 54
CC1Cc2ccccc2N1S(=O)(=O)c1cccc(C(=O)Nc2ccccc2C(C)(C)C)c1 (centres unmarked) [I-534, N-(2-(tert-butyl)phenyl)-3-((2-methylindolin-1-yl)sulfonyl)benzamide] | 54
O=C(Nc1ccc(-n2cnnn2)cc1)c1cccc(S(=O)(=O)N2CCc3ccccc32)c1 [I-535, N-(4-(1H-tetrazol-1-yl)phenyl)-3-(indolin-1-ylsulfonyl)benzamide] | 54
CC1Cc2ccccc2N1S(=O)(=O)c1cccc(C(=O)Nc2ccc3c(c2)OCCO3)c1 (centres unmarked) [I-536, N-(2,3-dihydrobenzo[b][1,4]dioxin-6-yl)-3-((2-methylindolin-1-yl)sulfonyl)benzamide] | 54
O=C(Nc1cccc(F)c1)c1ccc(Cl)c(S(=O)(=O)N2CCc3ccccc32)c1 [I-537, 4-chloro-N-(3-fluorophenyl)-3-(indolin-1-ylsulfonyl)benzamide] | 54
COc1ccc(S(=O)(=O)N2CCc3ccccc32)cc1C(=O)Nc1ccccc1F [I-538, N-(2-fluorophenyl)-5-(indolin-1-ylsulfonyl)-2-methoxybenzamide] | 54
O=C(Nc1ccc2c(c1)CCC2)c1cccc(S(=O)(=O)N2CCc3ccccc32)c1 [I-539, N-(2,3-dihydro-1H-inden-5-yl)-3-(indolin-1-ylsulfonyl)benzamide] | 54
COc1ccc(N(C)S(=O)(=O)c2cccc(C(=O)N3CCc4ccccc43)c2)cc1 [I-540, 3-(indoline-1-carbonyl)-N-(4-methoxyphenyl)-N-methylbenzenesulfonamide] | 54
CCOc1ccc(NC(=O)c2cccc(S(=O)(=O)Nc3ccc(OCC)cc3)c2)cc1 [I-541, N-(4-ethoxyphenyl)-3-(N-(4-ethoxyphenyl)sulfamoyl)benzamide] | 54
O=C(c1cccc(S(=O)(=O)Nc2cccc(Cl)c2)c1)N1CCc2ccccc21 [I-542, N-(3-chlorophenyl)-3-(indoline-1-carbonyl)benzenesulfonamide] | 54
Cc1ccc(S(=O)(=O)Nc2ccc(F)cc2)cc1C(=O)N1CCc2ccccc21 [I-543, N-(4-fluorophenyl)-3-(indoline-1-carbonyl)-4-methylbenzenesulfonamide] | 54
Cc1ccc(S(=O)(=O)Nc2ccc(F)cc2)cc1C(=O)N1c2ccccc2CC1C (centres unmarked) [I-544, N-(4-fluorophenyl)-4-methyl-3-(2-methylindoline-1-carbonyl)benzenesulfonamide] | 54
COc1ccc(C(=O)N2c3ccccc3CC2C)cc1S(=O)(=O)Nc1ccc(C)cc1 (centres unmarked) [I-545, 2-methoxy-5-(2-methylindoline-1-carbonyl)-N-(p-tolyl)benzenesulfonamide] | 53
COc1ccc(N(C)S(=O)(=O)c2cccc(C(=O)Nc3ccc(OC)c(Cl)c3)c2)cc1 [I-546, N-(3-chloro-4-methoxyphenyl)-3-(N-(4-methoxyphenyl)-N-methylsulfamoyl)benzamide] | 53
Cc1ccc(NC(=O)c2cccc(S(=O)(=O)N3c4ccccc4CC3C)c2)c(C)c1 (centres unmarked) [I-547, N-(2,4-dimethylphenyl)-3-((2-methylindolin-1-yl)sulfonyl)benzamide] | 53
COc1ccc(Cl)cc1NC(=O)c1cccc(S(=O)(=O)N2CCc3ccccc32)c1 [I-548, N-(5-chloro-2-methoxyphenyl)-3-(indolin-1-ylsulfonyl)benzamide] | 53
O=C(Nc1cc(Cl)ccc1N1CCOCC1)c1cccc(S(=O)(=O)N2CCc3ccccc32)c1 [I-549, N-(5-chloro-2-morpholinophenyl)-3-(indolin-1-ylsulfonyl)benzamide] | 53
CN(C)S(=O)(=O)c1cccc(NC(=O)c2cccc(S(=O)(=O)N3CCc4ccccc43)c2)c1 [I-550, N-(3-(N,N-dimethylsulfamoyl)phenyl)-3-(indolin-1-ylsulfonyl)benzamide] | 53
O=C(c1cc(S(=O)(=O)Nc2cccc(Cl)c2)c(Cl)cc1Cl)N1CCCc2ccccc21 [I-551, 2,4-dichloro-N-(3-chlorophenyl)-5-(1,2,3,4-tetrahydroquinoline-1-carbonyl)benzenesulfonamide] | 53
Cc1ccc(NC(=O)c2cccc(S(=O)(=O)N3CCc4ccccc43)c2)c(OCC2CCCO2)c1 (centres unmarked) [I-552, 3-(indolin-1-ylsulfonyl)-N-(4-methyl-2-((tetrahydrofuran-2-yl)methoxy)phenyl)benzamide] | 53

Structure (SMILES) | % Inhibition of Apyrase [%]
CC(C)n1ncc2cc(NC(=O)c3cccc(S(=O)(=O)Nc4ccc5c(c4)OCO5)c3)cnc21 [I-553, 3-(N-(benzo[d][1,3]dioxol-5-yl)sulfamoyl)-N-(1-isopropyl-1H-pyrazolo[3,4-b]pyridin-5-yl)benzamide] | 52
O=C(Nc1ccc(S(=O)(=O)Nc2ncccn2)cc1)c1cccc(S(=O)(=O)N2CCc3ccccc32)c1 [I-554, 3-(indolin-1-ylsulfonyl)-N-(4-(N-(pyrimidin-2-yl)sulfamoyl)phenyl)benzamide] | 52
Cc1cccc(NC(=O)c2ccc(Cl)c(S(=O)(=O)N3CCc4ccccc43)c2)c1 [I-555, 4-chloro-3-(indolin-1-ylsulfonyl)-N-(m-tolyl)benzamide] | 52
CC1Cc2ccccc2N1S(=O)(=O)c1cccc(C(=O)Nc2cccc(S(=O)(=O)N(C)C)c2)c1 (centres unmarked) [I-556, N-(3-(N,N-dimethylsulfamoyl)phenyl)-3-((2-methylindolin-1-yl)sulfonyl)benzamide] | 52
N#Cc1ccc(NC(=O)c2ccc(Cl)c(S(=O)(=O)N3CCc4ccccc43)c2)cc1 [I-557, 4-chloro-N-(4-cyanophenyl)-3-(indolin-1-ylsulfonyl)benzamide] | 52
Cc1ccc(N(C)S(=O)(=O)c2cccc(C(=O)N3CCc4ccccc43)c2)cc1 [I-558, 3-(indoline-1-carbonyl)-N-methyl-N-(p-tolyl)benzenesulfonamide] | 52
O=C(c1cc(S(=O)(=O)Nc2ccc(Cl)cc2)ccc1Cl)N1CCCc2ccccc21 [I-559, 4-chloro-N-(4-chlorophenyl)-3-(1,2,3,4-tetrahydroquinoline-1-carbonyl)benzenesulfonamide] | 52
Cc1cccc(NS(=O)(=O)c2cc(C(=O)Nc3cccc(C#N)c3)c(Cl)cc2Cl)c1 [I-560, 2,4-dichloro-N-(3-cyanophenyl)-5-(N-(m-tolyl)sulfamoyl)benzamide] | 52
COc1ccc2c(c1)CCCN2C(=O)c1cccc(S(=O)(=O)Nc2ccccc2F)c1 [I-561, N-(2-fluorophenyl)-3-(6-methoxy-1,2,3,4-tetrahydroquinoline-1-carbonyl)benzenesulfonamide] | 51
O=C(Nc1ccc2c(c1)OCO2)c1ccc(Cl)c(S(=O)(=O)N2CCc3ccccc32)c1 [I-562, N-(benzo[d][1,3]dioxol-5-yl)-4-chloro-3-(indolin-1-ylsulfonyl)benzamide] | 51
COc1ccc(N(C)S(=O)(=O)c2cccc(C(=O)Nc3ccc4c(c3)OCCO4)c2)cc1 [I-563, N-(2,3-dihydrobenzo[b][1,4]dioxin-6-yl)-3-(N-(4-methoxyphenyl)-N-methylsulfamoyl)benzamide] | 51
CCOc1ccc(N(C)S(=O)(=O)c2ccc(C)c(C(=O)N3c4ccccc4CC3C)c2)cc1 (centres unmarked) [I-564, N-(4-ethoxyphenyl)-N,4-dimethyl-3-(2-methylindoline-1-carbonyl)benzenesulfonamide] | 51
O=C(Nc1ccc2c(c1)OCCCO2)c1ccc(Cl)c(S(=O)(=O)N2CCc3ccccc32)c1 [I-565, 4-chloro-N-(3,4-dihydro-2H-benzo[b][1,4]dioxepin-7-yl)-3-(indolin-1-ylsulfonyl)benzamide] | 51
CCc1ccccc1NC(=O)c1cccc(S(=O)(=O)N2CCc3ccccc32)c1 [I-566, N-(2-ethylphenyl)-3-(indolin-1-ylsulfonyl)benzamide] | 51
O=C(c1cccc(S(=O)(=O)N2CCc3ccccc32)c1)N1CCc2ccccc21 [I-567, indolin-1-yl(3-(indolin-1-ylsulfonyl)phenyl)methanone] | 51
CCOc1ccc(NS(=O)(=O)c2cccc(C(=O)N3CCCc4ccccc43)c2)cc1 [I-568, N-(4-ethoxyphenyl)-3-(1,2,3,4-tetrahydroquinoline-1-carbonyl)benzenesulfonamide] | 51
Cc1ccc(C(=O)N2CCc3ccccc32)cc1S(=O)(=O)Nc1ccc(F)cc1 [I-569, N-(4-fluorophenyl)-5-(indoline-1-carbonyl)-2-methylbenzenesulfonamide] | 51
COc1cc(OC)c(NS(=O)(=O)c2ccc(C)c(C(=O)N3CCc4ccccc43)c2)cc1Cl [I-570, N-(5-chloro-2,4-dimethoxyphenyl)-3-(indoline-1-carbonyl)-4-methylbenzenesulfonamide] | 51
CC1Cc2ccccc2N1S(=O)(=O)c1cccc(C(=O)N2CCCc3cc(F)c(F)cc32)c1 (centres unmarked) [I-571, (6,7-difluoro-3,4-dihydroquinolin-1(2H)-yl)(3-((2-methylindolin-1-yl)sulfonyl)phenyl)methanone] | 51
O=C(Nc1ccccc1C(=O)N1CCCCC1)c1cccc(S(=O)(=O)N2CCc3ccccc32)c1 [I-572, 3-(indolin-1-ylsulfonyl)-N-(2-(piperidine-1-carbonyl)phenyl)benzamide] | 50
